{"source": "patent US8216973B2", "about": "“2-[(1H-pyrazole-4-ylmethyl)-sulfonyl]-oxazole-derivative, 2-[(1H-pyrazole-4-ylmethyl)-sulfanyl]-oxazole-derivatives, and chiral 2-[(1H-pyrazole-4-ymethyl)sulfinyl]oxazole derivatives, methods for the production thereof, and use thereof as herbicides and plant growth regulators” (Bayer Cropscience AG, priority 2008, dated 2012)", "key": {"[1]": {"tested_on": "harmful plants such as Echinochloa crus galli, Lolium multiflorum, and Setaria viridis", "test": "Post-emergence herbicidal effect, greenhouse pot test", "type": "in vivo, monocotyledonous and dicotyledonous weed plants", "settings": "post-emergence method, application rate of 0.32 kg and less of active substance per hectare, rated visually after about 3 weeks", "protocol": "2. Post-Emergence Herbicidal Effect and Crop Plant Compatibility\nSeeds of monocotyledonous and dicotyledonous weed and crop plants are placed in sandy loam in wood-fiber pots, covered with soil and cultivated in a greenhouse under good growth conditions. 2 to 3 weeks after sowing, the test plants are treated at the one-leaf stage. The compounds according to the invention, formulated in the form of wettable powders (WP), are then sprayed as aqueous suspension at a water application rate of 600 l/ha (converted) with the addition of 0.2% of wetting agent onto the green parts of the plants. After the test plants have been kept in the greenhouse under optimum growth conditions for about 3 weeks, the activity of the preparations is rated visually in comparison to untreated controls (herbicidal activity in percent (%): 100% activity=the plants have died, 0% activity=like control plants)."}, "[2]": {"tested_on": "harmful plants such as Avena fatua, Stellaria media, Echinochloa crus galli, Lolium multiflorum, Setaria viridis, Amaranthus retroflexus, Veronica persica …", "test": "Pre-emergence herbicidal effect, greenhouse pot test", "type": "in vivo, monocotyledonous or dicotyledonous weed plants", "settings": "pre-emergence method, application rate of 0.32 kg and less of active substance per hectare, scored visually after about 3 weeks", "from_the_text": "1. Pre-Emergence Herbicidal Effect and Crop Plant Compatibility\nSeeds of monocotyledonous or dicotyledonous weed plants or crop plants are placed in sandy loam in wood-fiber pots and covered with soil. The compounds according to the invention, formulated in the form of wettable powders (WP), are then applied as aqueous suspension at a water application rate of 600 l/ha (converted) with the addition of 0.2% of wetting agent to the surface of the covering soil.\nAfter the treatment, the pots are placed in a greenhouse and kept under good growth conditions for the test plants. After about 3 weeks, the effect of the preparations is scored visually in comparison with untreated controls (herbicidal effect in percent (%): 100% activity=the plants have died, 0% activity=like control plants)."}}}
{"smiles": "Cn1nc(C(F)(F)F)c(C[S+]([O-])c2ncco2)c1OC(F)F", "note": "(racemic) [compound 50, 2-({[5-(Difluoromethoxy)-1-methyl-3-(trifluoromethyl)-1H-pyrazol-4-yl]methyl}sulfinyl)-1,3-oxazole]", "values": [{"measurement": "herbicidal activity against harmful plants", "setting": "[1]", "result": "very good herbicidal activity"}, {"measurement": "herbicidal activity against harmful plants", "setting": "[2]", "result": "very good herbicidal activity"}]}
{"smiles": "Cn1nc(C(F)(F)F)c(C[S+]([O-])c2ncco2)c1Cl", "note": "(centres unmarked) [Compound No. 35, 2-({[5-(Chloro)-1-methyl-3-(trifluoromethyl)-1H-pyrazol-4-yl]methyl}sulfinyl)-1,3-oxazole]", "values": [{"measurement": "herbicidal activity against harmful plants", "setting": "[1]", "result": "very good herbicidal activity"}, {"measurement": "herbicidal activity against harmful plants", "setting": "[2]", "result": "very good herbicidal activity"}]}
{"smiles": "Cn1nc(C(F)(F)F)c(C[S+]([O-])c2ncco2)c1C(F)(F)F", "note": "(centres unmarked) [Compound No. 230, 2-({[1-Methyl-3,5-bis(trifluoromethyl)-1H-pyrazol-4-yl]methyl}sulfinyl)-1,3-oxazole]", "values": [{"measurement": "herbicidal activity against harmful plants", "setting": "[1]", "result": "very good herbicidal activity"}, {"measurement": "herbicidal activity against harmful plants", "setting": "[2]", "result": "very good herbicidal activity"}]}
{"smiles": "Cn1nc(C(F)(F)F)c(C[S+]([O-])c2ncc(Cl)o2)c1OC(F)F", "note": "(centres unmarked) [Compound No. 542, 5-Chloro-2-({[5-(difluoromethoxy)-1-methyl-3-(trifluoromethyl)-1H-pyrazol-4-yl]methyl}sulfinyl)-1,3-oxazole]", "values": [{"measurement": "herbicidal activity against harmful plants", "setting": "[1]", "result": "very good herbicidal activity"}, {"measurement": "herbicidal activity against harmful plants", "setting": "[2]", "result": "very good herbicidal activity"}]}
{"smiles": "Cn1nc(C(F)(F)F)c(C[S+]([O-])c2ncc(Br)o2)c1OC(F)F", "note": "(centres unmarked) [Compound No. 788, 5-Bromo-2-({[5-(difluoromethoxy)-1-methyl-3-(trifluoromethyl)-1H-pyrazol-4-yl]methyl}sulfinyl)-1,3-oxazole]", "values": [{"measurement": "herbicidal activity against harmful plants", "setting": "[2]", "result": "very good herbicidal activity"}]}
{"smiles": "Cn1nc(C(F)(F)F)c(CS(=O)(=O)c2ncc(Br)o2)c1OC(F)F", "note": "[Compound No. 789, 5-Bromo-2-({[5-(difluoromethoxy)-1-methyl-3-(trifluoromethyl)-1H-pyrazol-4-yl]methyl}sulfonyl)-1,3-oxazole]", "values": [{"measurement": "herbicidal activity against harmful plants", "setting": "[2]", "result": "very good herbicidal activity"}]}
{"smiles": "Cn1nc(C(F)(F)F)c(C[S+]([O-])c2ncc(I)o2)c1OC(F)F", "note": "(centres unmarked) [Compound No. 1034, 5-Iodo-2-({[5-(difluoromethoxy)-1-methyl-3-(trifluoromethyl)-1H-pyrazol-4-yl]methyl}sulfinyl)-1,3-oxazole]", "values": [{"measurement": "herbicidal activity against harmful plants", "setting": "[2]", "result": "very good herbicidal activity"}]}
{"smiles": "Cn1nc(C(F)(F)F)c(C[S@+]([O-])c2ncc(Cl)o2)c1OC(F)F", "note": "[Compound No. 2449]", "values": [{"measurement": "herbicidal activity against harmful plants", "setting": "[2]", "result": "very good herbicidal activity"}]}
{"smiles": "Cn1nc(C(F)(F)F)c(C[S@+]([O-])c2ncc(Br)o2)c1OC(F)F", "note": "[Compound No. 2531]", "values": [{"measurement": "herbicidal activity against harmful plants", "setting": "[2]", "result": "very good herbicidal activity"}]}
{"smiles": "Cn1nc(C(F)(F)F)c(CS(=O)(=O)c2ncco2)c1OC(F)F", "note": "[compound 51, 2-({[5-(Difluoromethoxy)-1-methyl-3-(trifluoromethyl)-1H-pyrazol-4-yl]methyl}sulfonyl)-1,3-oxazole]", "values": [{"measurement": "herbicidal activity against harmful plants", "setting": "[1]", "result": "very good herbicidal activity"}, {"measurement": "herbicidal activity against harmful plants", "setting": "[2]", "result": "very good herbicidal activity"}]}
{"smiles": "Cn1nc(C(F)(F)F)c(C[S@+]([O-])c2ncco2)c1OC(F)F", "note": "[compound 2285, 2-[(S)-{[5-(Difluoromethoxy)-1-methyl-3-(trifluoromethyl)-1H-pyrazol-4-yl]methyl}sulfinyl]-1,3-oxazole]", "values": [{"measurement": "herbicidal activity against harmful plants", "setting": "[1]", "result": "very good herbicidal activity"}, {"measurement": "herbicidal activity against harmful plants", "setting": "[2]", "result": "very good herbicidal activity"}]}
